Results reported in EP0604354B1, “Antidepressant and antiparkinsonian compounds” (N[…]/S, priority 1992, dated 1994).

Assays:
[1] = test system: haloperidol-induced catalepsy; test: catalepsy test for antiparkinsonian effects (antagonism of haloperidol-induced catalepsy); assay type: in vivo; conditions: rat, given perorally 1 h before haloperidol 0.25 mg/kg s.c.; read-out: Minimum effective dose (peroral administration)
Text: The day before testing, the rats weighing 200-250 g are housed 2 and 2 together in standard macrolon cages. […] The testing for the immobile catalepsy syndrome includes 4 tests performed in the following consecutive order: • 1) a vertical wire netting (40x40 cm high).The meshes (openings) of the nettings are approximately 1x2cm. • 2) a horizontal bar 9 cm above the floor • 3) a 9 cm high block (bar) • 4) a 3 cm high block (cork)
The rats were scored for the immobile cataleptic syndrome every 15 min in all 4 tests starting 15 min after the haloperidol injection. The intensity of catalepsy was tested during 10 sec in all tests and evaluated according to a criteria of 10 sec of total immobility for a score of 2.
The rat was placed in the middle of the vertical wire netting, then on the horizontal bar in an extended position with support by both the forelegs on the bar. The rats were then tested, whether or not they were willing to sit with the left or right forelegs placed first on the 9 and then on the 3 cm block for a duration of 10 sec. The maximum score for all 4 tests is thus a total of 8.

[2] = test system: rearing and locomotor activities; test: behavioural excitatory locomotor and rearing responses (gross behaviour rating); assay type: in vivo; conditions: rat, 50 mg/kg i.p., maximum peak effect, observed 5-6 hrs
Description: Male SPF wistar rats weighing 200-250g were used for the gross behavioural studies. All rats were transferred the day before the experiments to individual cages made of wire netting (floor area 21 x 27 cm, height 16 cm) at a room temperature of 21-23° C. […] The behavioural elements here classified as rearing (i.e. standing up on the hindlegs) and locomotor activities (i.e. forward running activities) were registered, and the maximum peak effects were classified according to the following rating scale: • 0 = non-existent or very infrequent • + = weak and infrequent • ++ = moderate in intensity and frequency • +++ = very strong, continuous and intense
The degree of locomotor activity was also tested and measured quantitatively in photocell activity cages. For the measurement of this locomotor activity 100 g female rats are used.

[3] = molecular target: T1, reuptake of dopamine in synaptosomes of rat forebrain (Rattus norvegicus, UniProt P23977); test: inhibition of reuptake of 3H-dopamine in synaptosomes of rat forebrain; assay type: biochemical
T1 construct: Fresh whole forebrain (at 0-4°C) from male Wistar rats (150-200 g) is homogenized; from tissue; host or cells: male Wistar rat whole forebrain, crude synaptosomal supernatant
Description: Fresh whole forebrain (at 0-4°C) from male Wistar rats (150-200 g) is homogenized in a glass homogenizer with a teflon pestle in 20 x volumes 0.32M sucrose. The homogenate is centrifuged at 1000 x g (∼ 2900 rpm) for 10 min. The pellet is discarded and the supernatant is used for uptake assays.
A Krebs Buffer (119 mM NaCI, 24 mM NaHCO3, 2.1 mM KCI, 1.2 mM KH2PO4, 1.8 mM CaCl2, 2 mM MgSO4, 7H2O, 12 mM glucose) is equilibrated with an atmosphere of 96% O2: 4% CO2 for at least 60 min at 37°C. To 5 ml Krebs-buffer 100 µl of the radioactivity is added (3H-dopamine 1 x 10^-9M final concentration) and 100 µl test substance solution and 200 µl of tissue suspension. The samples are thoroughly mixed and incubated 10 min at 37°C followed by 2 min at 0°C. After incubation the samples are poured directly onto Whatman GF/C glass fibre filters under suction and immediately washed with 2 x 5 ml ice-cold 0.9% saline (NaCI) buffer. To the filter is added 3 ml of scintillation fluid, and the amount of radioactivity on the filters is determined by conventional liquid scintillation counting.

[4] = test system: abnormal stereotyped behaviour; test: abnormal stereotyped behaviour (high intensity stereotypy rating); assay type: in vivo; conditions: rat, 50 mg/kg i.p.
Text: Backward locomotion may occasionally be observed.

dopamine release = test: dopamine releasing properties (no method given)

T1 sequence (P23977 whole entry): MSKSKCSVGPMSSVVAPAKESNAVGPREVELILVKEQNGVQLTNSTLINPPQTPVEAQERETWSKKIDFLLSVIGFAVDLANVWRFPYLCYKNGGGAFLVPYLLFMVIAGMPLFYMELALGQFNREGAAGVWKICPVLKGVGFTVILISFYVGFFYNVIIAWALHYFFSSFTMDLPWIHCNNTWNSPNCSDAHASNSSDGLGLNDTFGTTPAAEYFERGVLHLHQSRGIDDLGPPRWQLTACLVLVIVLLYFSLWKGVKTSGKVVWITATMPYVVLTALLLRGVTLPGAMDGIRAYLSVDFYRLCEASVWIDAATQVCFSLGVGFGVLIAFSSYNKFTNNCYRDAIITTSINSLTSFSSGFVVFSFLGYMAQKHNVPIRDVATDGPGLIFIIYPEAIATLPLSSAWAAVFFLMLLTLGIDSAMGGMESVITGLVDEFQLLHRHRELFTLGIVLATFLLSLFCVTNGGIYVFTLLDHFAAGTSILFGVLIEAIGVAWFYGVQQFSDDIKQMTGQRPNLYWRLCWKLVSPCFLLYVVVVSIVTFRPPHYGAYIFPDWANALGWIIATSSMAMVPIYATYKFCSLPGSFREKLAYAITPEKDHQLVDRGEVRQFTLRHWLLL

| Structure (SMILES) | minimal effective dose [1] [mg/kg] | Activity (excitatory locomotor and rearing responses) [2] | IC50 [3] [nM] | Activity (abnormal stereotyped behaviour, high intensity stereotypy) [4] | dopamine releasing properties (dopamine release) |
| --- | --- | --- | --- | --- | --- |
| CN1[C@H]2CC[C@@H]1[C@H](COc1ccc(Cl)cc1)[C@@H](c1ccc(F)cc1)C2.Cl [(1R,2R,3S)-2-(4-Chlorophenoxy-methyl)-3-(4-fluorophenyl)tropane, hydrochloride] | < 1 | 0 | 390 | 0 | – |
| COC(=O)[C@@H]1[C@@H](c2ccc(F)cc2)C[C@@H]2CC[C@H]1N2C [trans isomer of Win 35,428] | – | – | – | – | essentially free of dopamine releasing properties |
